Measured values from patent US20240066131A1 (Protagonist Therapeutics, Inc., priority 2020, published 2024).
Starred links: 1 amine or outer side, 2 acyl side, 3 side chain; linkers in the order of their positions; H or OH if unused. Non-standard residues stand in square brackets, D forms with d. Residues, ends and D or L forms follow the SMILES beside them. Groups on a side chain read outwards from the residue. *: point of attachment. Ala(1H-tetrazol-5-yl) = N[C@@H](Cc1nnn[nH]1)C(=O)O; Gly(N-CH2CH2-imidazol-4-yl) = O=C(O)CNCCc1c[nH]cn1; X14 = O=C(CN(CCC(c1ccccc1)c1ccccc1)[*:1])[*:2]; C18 diacid = O=C(O)CCCCCCCCCCCCCCCCC(=O)*; X15 = O=C([C@H](CCc1nnn[nH]1)N[*:1])[*:2]; X8 = O=C([C@H](CCc1nn[nH]n1)N[*:1])[*:2]; Dip = N[C@H](C(=O)O)C(c1ccccc1)c1ccccc1; γGlu = O=C(O)[C@H](CCC(=O)[*:2])N[*:1]; His(τ-Me) = Cn1cnc(C[C@H](N)C(=O)O)c1; Palmitoyl = CCCCCCCCCCCCCCCC(=O)*; Myristoyl = CCCCCCCCCCCCCC(=O)*; β3hF = N[C@H](CC(=O)O)Cc1ccccc1; NMeL = CN[C@@H](CC(C)C)C(=O)O; hLeu = CC(C)CC[C@H](N)C(=O)O; Lauroyl = CCCCCCCCCCCC(=O)*; Isovaleryl = CC(C)CC(=O)*; Octanoyl = CCCCCCCC(=O)*; AEEA = NCCOCCOCC(=O)O; NHBn = c1ccc(CN*)cc1; Ahx = NCCCCCC(=O)O; βAla = NCCC(=O)O

Target: T1, ferroportin (Homo sapiens, UniProt Q9NP59)
T1 sequence (Q9NP59 1-571): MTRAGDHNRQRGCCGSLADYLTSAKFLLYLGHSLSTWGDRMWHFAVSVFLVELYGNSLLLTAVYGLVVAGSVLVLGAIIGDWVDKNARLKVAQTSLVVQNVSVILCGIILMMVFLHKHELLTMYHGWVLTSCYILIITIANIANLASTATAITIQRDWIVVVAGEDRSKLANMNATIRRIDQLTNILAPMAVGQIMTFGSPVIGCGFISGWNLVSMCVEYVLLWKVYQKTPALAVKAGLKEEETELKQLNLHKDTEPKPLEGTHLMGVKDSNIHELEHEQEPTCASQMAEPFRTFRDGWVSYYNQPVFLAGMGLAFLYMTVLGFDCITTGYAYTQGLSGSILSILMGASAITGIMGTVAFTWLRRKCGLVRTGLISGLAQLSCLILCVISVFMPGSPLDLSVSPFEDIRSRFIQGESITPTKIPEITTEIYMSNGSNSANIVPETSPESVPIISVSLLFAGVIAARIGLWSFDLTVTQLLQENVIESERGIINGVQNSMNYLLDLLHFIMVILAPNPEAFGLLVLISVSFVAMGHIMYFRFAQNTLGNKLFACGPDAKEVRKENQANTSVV
Assay: FPN activity assay: internalization/degradation of ferroportin-GFP in stably transfected HEK293 cells (loss of GFP fluorescence)
Type: cell-based
Conditions: Table 6A; read-out: FPN EC50
Experimental: Following internalization, the ferroporin protein is degraded.
A retro inverse peptide is a peptide with a reversed sequence in all D amino acids. An example is that Hy-Glu-Thr-His-NH2 becomes Hy-DHis-DThr-DGlu-NH2. The EC50 of these reference compounds for ferroportin internalization/degradation was determined according to the FPN activity assay described above. These peptides served as control standards.

| Structure (SMILES) | DC50 [nM] |
| --- | --- |
| CC[C@H](C)[C@H](NC(=O)[C@H](C)NC(=O)[C@@H]1CCCN1C(=O)[C@@H](NC(=O)[C@H](Cc1cn(C)cn1)NC(=O)[C@@H](NC(=O)[C@H](Cc1nn[nH]n1)NC(=O)CC(C)C)[C@@H](C)O)C(c1ccccc1)c1ccccc1)C(=O)N[C@@H](CCCCNC(C)=O)C(=O)N[C@H](CC(=O)N[C@H](CCCCN)C(=O)N[C@@H](C)C(N)=O)Cc1ccccc1 [compound 39] (Isovaleryl-[Ala(1H-tetrazol-5-yl)]T[His(τ-Me)][Dip]PAIK(Ac)[β3hF][dK]A-NH2) | > 3000 |
| CCCCCCCCCCCCCCCC(=O)NCCCCCC(=O)NCCCC[C@H](NC(=O)[C@@H](NC(=O)[C@H](C)NC(=O)[C@@H]1CCCN1C(=O)[C@@H](NC(=O)CN(CCc1c[nH]cn1)C(=O)[C@@H](NC(=O)[C@H](CCC(=O)O)NC(=O)CC(C)C)[C@@H](C)O)C(c1ccccc1)c1ccccc1)[C@@H](C)CC)C(=O)N[C@H](CC(N)=O)Cc1ccccc1 [compound 88] (Isovaleryl-ET[Gly(N-CH2CH2-imidazol-4-yl)][Dip]PAIK([Ahx-Palmitoyl])[β3hF]-NH2) | > 3000 |
| CCCCCCCCCCCCCCCC(=O)NCCC(=O)NCCC(=O)NCCCC[C@H](NC(=O)[C@@H](NC(=O)[C@H](C)NC(=O)[C@@H]1CCCN1C(=O)[C@@H](NC(=O)[C@H](Cc1c[nH]cn1)NC(=O)[C@@H](NC(=O)[C@H](CCC(=O)O)NC(=O)CC(C)C)[C@@H](C)O)C(c1ccccc1)c1ccccc1)[C@@H](C)CC)C(=O)N[C@H](CC(N)=O)Cc1ccccc1 [compound 99] (Isovaleryl-ETH[Dip]PAIK([βAla-βAla-Palmitoyl])[β3hF]-NH2) | 103 |
| CCCCCCCCCCCCCCCC(=O)NCCCCCC(=O)NCCCC[C@H](NC(=O)[C@@H](NC(=O)[C@H](C)NC(=O)[C@@H]1CCCN1C(=O)[C@@H](NC(=O)[C@H](Cc1c[nH]cn1)NC(=O)[C@@H](NC(=O)[C@H](CCC(=O)O)NC(=O)CC(C)C)[C@@H](C)O)C(c1ccccc1)c1ccccc1)[C@@H](C)CC)C(=O)N[C@H](CC(N)=O)Cc1ccccc1 [SEQ ID No. 9, Isovaleric Acid-E-T-H-[Dpa]-P-A-I-[Lys(Ahx_Palm)]-[bhPhe]-NH2] (Isovaleryl-ETH[Dip]PAIK([Ahx-Palmitoyl])[β3hF]-NH2) | 31.9 |
| CC[C@H](C)[C@H](NC(=O)[C@H](C)NC(=O)[C@@H]1CCCN1C(=O)[C@@H](NC(=O)[C@H](Cc1c[nH]cn1)NC(=O)[C@@H](NC(=O)[C@H](CCc1nnn[nH]1)NC(=O)CC(C)C)[C@@H](C)O)C(c1ccccc1)c1ccccc1)C(=O)N[C@@H](CCCCNC(C)=O)C(=O)N[C@H](CC(=O)N[C@H](CCCCN)C(=O)N[C@@H](C)C(N)=O)Cc1ccccc1 [compound 38] (Isovaleryl-[X15]TH[Dip]PAIK(Ac)[β3hF][dK]A-NH2) | 117 |
| CC[C@H](C)[C@H](NC(=O)[C@H](C)NC(=O)[C@@H]1CCCN1C(=O)[C@@H](NC(=O)[C@H](Cc1cn(C)cn1)NC(=O)[C@@H](NC(=O)[C@H](CCc1nn[nH]n1)NC(=O)CC(C)C)[C@@H](C)O)C(c1ccccc1)c1ccccc1)C(=O)N[C@@H](CCCCNC(C)=O)C(=O)N[C@H](CC(=O)N[C@H](CCCCN)C(N)=O)Cc1ccccc1 [compound 41] (Isovaleryl-[X8]T[His(τ-Me)][Dip]PAIK(Ac)[β3hF][dK]-NH2) | > 3000 |
| CCCCCCCCCCCCCCCC(=O)NCCCCCC(=O)NCCCC[C@H](NC(=O)[C@@H](NC(=O)[C@H](CC(C)C)NC(=O)[C@@H]1CCCN1C(=O)[C@@H](NC(=O)[C@H](Cc1c[nH]cn1)NC(=O)[C@@H](NC(=O)[C@H](CCC(=O)O)NC(=O)CC(C)C)[C@@H](C)O)C(c1ccccc1)c1ccccc1)[C@@H](C)CC)C(=O)N(C)[C@@H](CC(C)C)C(N)=O [compound 140] (Isovaleryl-ETH[Dip]PLIK([Ahx-Palmitoyl])[NMeL]-NH2) | 32.4 |
| CCCCCCCC(=O)NCCCCCC(=O)NCCCC[C@H](NC(=O)[C@@H](NC(=O)[C@H](C)NC(=O)[C@@H]1CCCN1C(=O)[C@@H](NC(=O)[C@H](Cc1c[nH]cn1)NC(=O)[C@@H](NC(=O)[C@H](CCC(=O)O)NC(=O)CC(C)C)[C@@H](C)O)C(c1ccccc1)c1ccccc1)[C@@H](C)CC)C(=O)N[C@H](CC(N)=O)Cc1ccccc1 [compound 103] (Isovaleryl-ETH[Dip]PAIK([Ahx-Octanoyl])[β3hF]-NH2) | 162 |
| CC[C@H](C)[C@H](NC(=O)[C@H](C)NC(=O)[C@@H]1CCCN1C(=O)[C@@H](NC(=O)[C@H](Cc1c[nH]cn1)NC(=O)[C@@H](NC(=O)[C@H](CCC(=O)O)NC(=O)CC(C)C)[C@@H](C)O)C(c1ccccc1)c1ccccc1)C(=O)N[C@@H](CCCCNC(C)=O)C(N)=O [compound 12] (Isovaleryl-ETH[Dip]PAIK(Ac)-NH2) | 1040 |
| CCCCCCCCCCCCCCCC(=O)NCCCCCC(=O)NCCCC[C@H](NC(=O)[C@@H](NC(=O)[C@H](CCC(C)C)NC(=O)[C@@H]1CCCN1C(=O)[C@@H](NC(=O)[C@H](Cc1c[nH]cn1)NC(=O)[C@@H](NC(=O)[C@H](CCC(=O)O)NC(=O)CC(C)C)[C@@H](C)O)C(c1ccccc1)c1ccccc1)[C@@H](C)CC)C(=O)N[C@H](CC(N)=O)Cc1ccccc1 [compound 121] (Isovaleryl-ETH[Dip]P[hLeu]IK([Ahx-Palmitoyl])[β3hF]-NH2) | 150 |
| CCCCCCCCCCCCCCCC(=O)NCCCCCC(=O)NCCCC[C@H](NC(=O)[C@@H](NC(=O)[C@@H](NC(=O)[C@@H]1CCCN1C(=O)[C@@H](NC(=O)[C@H](Cc1cn(C)cn1)NC(=O)[C@@H](NC(=O)[C@H](CCc1nn[nH]n1)NC(=O)CC(C)C)[C@@H](C)O)C(c1ccccc1)c1ccccc1)[C@@H](C)CC)[C@@H](C)CC)C(=O)N[C@H](CC(N)=O)Cc1ccccc1 [compound 117] (Isovaleryl-[X8]T[His(τ-Me)][Dip]PIIK([Ahx-Palmitoyl])[β3hF]-NH2) | 101 |

Same assay, conditions: Table 6B; read-out: FPN IC50

| Structure (SMILES) | DC50 [nM] |
| --- | --- |
| CCCCCCCCCCCCCCCC(=O)NCCCCCC(=O)NCCCC[C@H](NC(=O)C[C@H](Cc1ccccc1)NC(=O)[C@@H](CCCCN)NC(=O)[C@@H](NC(=O)[C@H](C)NC(=O)[C@@H]1CCCN1C(=O)[C@H](C)NC(=O)[C@H](Cc1c[nH]cn1)NC(=O)[C@@H](NC(=O)[C@H](CCC(=O)O)NC(=O)CC(C)C)[C@@H](C)O)[C@@H](C)CC)C(=O)N[C@H](CCCCN)C(=O)N[C@@H](C)C(N)=O [compound 151] (Isovaleryl-ETHAPAI[dK][β3hF]K([Ahx-Palmitoyl])[dK]A-NH2) | > 3000 |

Same assay, conditions: ferroportin-GFP HEK293 cells, compound incubated at least 18 hours; read-out: FPN IC50

| Structure (SMILES) | DC50 [nM] |
| --- | --- |
| CC[C@H](C)[C@H](NC(=O)[C@H](C)NC(=O)[C@@H]1CCCN1C(=O)[C@@H](NC(=O)[C@H](Cc1c[nH]cn1)NC(=O)[C@@H](NC(=O)[C@H](CCCCNC(=O)COCCOCCNC(=O)COCCOCCNC(=O)CCCCCNC(=O)CCCCCCCCCCCCCCCCC(=O)O)NC(C)=O)[C@@H](C)O)C(c1ccccc1)c1ccccc1)C(=O)N[C@H](CCCCN)C(=O)N[C@H](CC(N)=O)Cc1ccccc1 [compound 234] (Ac-K([AEEA-AEEA-Ahx-C18 diacid])TH[Dip]PAI[dK][β3hF]-NH2) | > 3000 |
| CC(C)CC(=O)N[C@@H](CC(C)C)C(=O)N[C@H](C(=O)N[C@@H](Cc1c[nH]cn1)C(=O)N[C@H](C(=O)N[C@@H](CCCCNC(=O)COCCOCCNC(=O)COCCOCCNC(=O)CC[C@H](NC(=O)CCCCCCCCCCCCCCCCC(=O)O)C(=O)O)C(=O)NCc1ccccc1)C(c1ccccc1)c1ccccc1)[C@@H](C)O [compound 227] (Isovaleryl-LTH[Dip]K([AEEA-AEEA-γGlu-C18 diacid])-NHBn) | > 3000 |
| CCCCCCCCCCCCCC(=O)NCCCCCC(=O)NCCCC[C@H](NC(=O)[C@@H](NC(=O)[C@H](C)NC(=O)[C@@H]1CCCN1C(=O)[C@H](Cc1ccccc1)NC(=O)[C@H](Cc1c[nH]cn1)NC(=O)[C@@H](NC(=O)[C@H](CCC(=O)O)NC(=O)CC(C)C)[C@@H](C)O)[C@@H](C)CC)C(=O)N[C@@H](Cc1ccccc1)C(=O)N[C@@H](CCC(=O)O)C(=O)N1CCC[C@H]1C(=O)N[C@@H](CCCNC(=N)N)C(=O)N[C@H](CO)C(N)=O [compound 247] (Isovaleryl-ETHFPAIK([Ahx-Myristoyl])FEPR[dS]-NH2) | 1160 |
| CCCCCCCCCCCC(=O)NCCCCCC(=O)NCCCC[C@H](NC(=O)[C@@H](NC(=O)[C@H](C)NC(=O)[C@@H]1CCCN1C(=O)[C@H](Cc1ccccc1)NC(=O)[C@H](Cc1c[nH]cn1)NC(=O)[C@@H](NC(=O)[C@H](CCC(=O)O)NC(=O)CC(C)C)[C@@H](C)O)[C@@H](C)CC)C(=O)N[C@@H](Cc1ccccc1)C(=O)N[C@@H](CCC(=O)O)C(=O)N1CCC[C@H]1C(=O)N[C@@H](CCCNC(=N)N)C(=O)N[C@@H](CO)C(=O)N[C@@H](CCCCN)C(=O)NCC(=O)N[C@@H](C)C(=O)N[C@@H](CCCCN)C(N)=O [compound 243] (Isovaleryl-ETHFPAIK([Ahx-Lauroyl])FEPRSKGAK-NH2) | 1070 |

Same assay, conditions: read-out: FPN EC50; Table 6A

| Structure (SMILES) | DC50 [nM] |
| --- | --- |
| CCCCCCCCCCCCCCCC(=O)NCCCCCC(=O)NCCCC[C@H](NC(=O)[C@@H](NC(=O)[C@H](C)NC(=O)[C@@H]1CCCN1C(=O)CN(CCC(c1ccccc1)c1ccccc1)C(=O)[C@H](Cc1c[nH]cn1)NC(=O)[C@@H](NC(=O)[C@H](CCC(=O)O)NC(=O)CC(C)C)[C@@H](C)O)[C@@H](C)CC)C(=O)N[C@H](CC(N)=O)Cc1ccccc1 [compound 89] (Isovaleryl-ETH[X14]PAIK([Ahx-Palmitoyl])[β3hF]-NH2) | > 3000 |
